From US10105357B2, “Indication of antibiotic drugs for preparation of cancer inhibition pharmaceutical composition” (LAUNX BIOMEDICAL CO., LTD., priority 2014, dated 2018)
Like-named read-outs stand apart in the source and are kept apart here.

Legend:
Format in all cases: cell-based, human
[1] = test system: cancer cell lines; test: Cell viability analysis (WST-1) on cancer cell lines; conditions: drug 10 μM, 72 hours, WST-1; Table 3
[2] = test system: HI650 (Lung Adenocarcinoma); test: Cell viability analysis, lung cancer HI650; conditions: Homo sapiens, NCI-H1650, 72 h
[3] = test system: A549 (Lung Adenocarcinoma); test: Cell viability analysis, lung cancer A549; conditions: Homo sapiens, A549, 72 h
[4] = test system: AGS (Gastric Adenocarcinoma); test: Cell viability analysis, gastric cancer AGS; conditions: Homo sapiens, 72 h
[5] = test system: MKN-45 (Gastric Adenocarcinoma); test: Cell viability analysis, gastric cancer MKN-45; conditions: Homo sapiens, MKN-45, 72 h
[6] = test system: HepG2 (Hepatocellular Carcinoma); test: Cell viability analysis, hepatic cancer HepG2; conditions: Homo sapiens, HepG2, 72 h
[7] = test system: LoVo (Colorectal Adenocarcinoma); test: Cell viability analysis, colon cancer LoVo; conditions: Homo sapiens, LoVo, 72 h
[8] = test system: A375 (Amelanotic Melanoma); test: Cell viability analysis, skin cancer A375; conditions: Homo sapiens, A-375, 72 h
[9] = test system: HeLa (Cervix Adenocarcinoma); test: Cell viability analysis, cervical cancer HeLa; conditions: Homo sapiens, HeLa, 72 h
[10] = test system: PC3 (p53−) (Prostate Adenocarcinoma); test: Cell viability analysis, prostate cancer PC3; conditions: Homo sapiens, 72 h
[11] = test system: TSGH-8301 (Urinary Bladder Carcinoma); test: Cell viability analysis, bladder cancer TSGH-8301; conditions: Homo sapiens, 72 h
[12] = test system: MCF7 (Mammary Gland, Adenocarcinoma); test: Cell viability analysis, breast cancer MCF7; conditions: Homo sapiens, MCF7, 72 h
[13] = test system: HL-60 (Acute Promyelocytic Leukemia); test: Cell viability analysis, leukemia HL-60; conditions: Homo sapiens, HL-60, 72 h
[14] = drug 10 μM, 72 hours, WST-1, OD450 nm, read-out: cell viability (survival rate), H1650
[15] = drug 10 μM, 72 hours, WST-1, OD450 nm, read-out: cell viability (survival rate), A549
[16] = drug 10 μM, 72 hours, WST-1, OD450 nm, read-out: cell viability (survival rate), AGS
[17] = drug 10 μM, 72 hours, WST-1, OD450 nm, read-out: cell viability (survival rate), MKN-45
[18] = drug 10 μM, 72 hours, WST-1, OD450 nm, read-out: cell viability (survival rate), HepG2
[19] = read-out: cell viability (survival rate), LoVo, drug 10 μM, 72 hours, WST-1, OD450 nm
[20] = drug 10 μM, 72 hours, WST-1, OD450 nm, read-out: cell viability (survival rate), A375
[21] = drug 10 μM, 72 hours, WST-1, OD450 nm, read-out: cell viability (survival rate), HeLa
[22] = drug 10 μM, 72 hours, WST-1, OD450 nm, read-out: cell viability (survival rate), PC3
[23] = drug 10 μM, 72 hours, WST-1, OD450 nm, read-out: cell viability (survival rate), TSGH
[24] = drug 10 μM, 72 hours, WST-1, OD450 nm, read-out: cell viability (survival rate), MCF7
[25] = drug 10 μM, 72 hours, WST-1, OD450 nm, read-out: cell viability (survival rate), HL-60
[26] = read-out: cell viability (survival rate), H1650, drug 10 μM, 72 hours, WST-1, OD450 nm
[27] = read-out: cell viability (survival rate), A549, drug 10 μM, 72 hours, WST-1, OD450 nm
[28] = read-out: cell viability (survival rate), AGS, drug 10 μM, 72 hours, WST-1, OD450 nm
[29] = read-out: cell viability (survival rate), MKN-45, drug 10 μM, 72 hours, WST-1, OD450 nm
[30] = read-out: cell viability (survival rate), HepG2, drug 10 μM, 72 hours, WST-1, OD450 nm
[31] = read-out: cell viability (survival rate), A375, drug 10 μM, 72 hours, WST-1, OD450 nm
[32] = read-out: cell viability (survival rate), HeLa, drug 10 μM, 72 hours, WST-1, OD450 nm
[33] = read-out: cell viability (survival rate), PC3, drug 10 μM, 72 hours, WST-1, OD450 nm
[34] = read-out: cell viability (survival rate), TSGH, drug 10 μM, 72 hours, WST-1, OD450 nm
[35] = read-out: cell viability (survival rate), MCF7, drug 10 μM, 72 hours, WST-1, OD450 nm
[36] = read-out: cell viability (survival rate), HL-60, drug 10 μM, 72 hours, WST-1, OD450 nm

| Compound | inhibition effect on different cancer cell lines [1] | viability at 10 µM [2, 14] [%] | viability at 10 µM [3, 15] [%] | viability at 10 µM [4, 16] [%] | viability at 10 µM [5, 17] [%] | viability at 10 µM [6, 18] [%] | viability at 10 µM [7, 19] [%] | viability at 10 µM [8, 20] [%] | viability at 10 µM [9, 21] [%] | viability at 10 µM [10, 22] [%] | viability at 10 µM [11, 23] [%] | viability at 10 µM [12, 24] [%] | viability at 10 µM [13, 25] [%] | viability at 10 µM [2, 26] [%] | viability at 10 µM [3, 27] [%] | viability at 10 µM [4, 28] [%] | viability at 10 µM [5, 29] [%] | viability at 10 µM [6, 30] [%] | viability at 10 µM [8, 31] [%] | viability at 10 µM [9, 32] [%] | also measured |
| --- | --- | --- | --- | --- | --- | --- | --- | --- | --- | --- | --- | --- | --- | --- | --- | --- | --- | --- | --- | --- | --- |
| COc1cc(C)c(/C=C/C(C)=C/C=C/C(C)=C/C(=O)O)c(C)c1C [Acitretin] | significant inhibition effect |  |  |  |  |  |  |  |  |  |  |  |  |  |  |  |  |  |  |  | viability at 10 µM ([2]; read-out: cell viability (survival rate), H1650): 43.8%; viability at 10 µM ([3]; read-out: cell viability (survival rate), A549): 69.1%; viability at 10 µM ([4]; read-out: cell viability (survival rate), AGS): 68.1%; viability at 10 µM ([5]; read-out: cell viability (survival rate), MKN-45): 78.5%; viability at 10 µM ([6]; read-out: cell viability (survival rate), HepG2): 72.6%; viability at 10 µM ([7]; read-out: cell viability (survival rate), LoVo): 83.6%; viability at 10 µM ([8]; read-out: cell viability (survival rate), A375): 61.4%; viability at 10 µM ([9]; read-out: cell viability (survival rate), HeLa): 52.7%; viability at 10 µM ([10]; read-out: cell viability (survival rate), PC3): 92.5%; viability at 10 µM ([11]; read-out: cell viability (survival rate), TSGH): 127%; viability at 10 µM ([12]; read-out: cell viability (survival rate), MCF7): 119%; viability at 10 µM ([13]; read-out: cell viability (survival rate), HL-60): 96.7% |
| C[C@H](CCC(=O)O)[C@H]1CC[C@H]2[C@@H]3[C@H](O)C[C@@H]4C[C@H](O)CC[C@]4(C)[C@H]3CC[C@]12C [Chenodeoxycholic acid] | significant inhibition effect | 68.1 | 96.3 | 68.9 | 51.8 | 94.8 | 82.7 | 64.2 | 69.1 | 71.4 | 88.8 | 74.5 | 118 |  |  |  |  |  |  |  |  |
| C[C@@H](O)[C@H]1C(=O)N2C(C(=O)[O-])=C(SC3Cn4cnc[n+]4C3)[C@H](C)[C@H]12 (some centres unmarked) [Biapenem] | significant inhibition effect |  |  |  |  |  | 88.7 |  |  |  |  |  |  | 42.2 | 90.1 | 75.1 | 81.5 | 66.4 | 60.4 | 54 | viability at 10 µM [10, 33]: 80.3%; viability at 10 µM [11, 34]: 117%; viability at 10 µM [12, 35]: 136%; viability at 10 µM [13, 36]: 95.5% |
| CCn1cc(C(=O)O)c(=O)c2cc(F)c(N3CCNCC3)cc21 [Norfloxacin (Norxacin), Norfloxacin] | significant inhibition effect |  |  |  |  |  | 88 |  |  |  |  |  |  | 75 | 84.8 | 63.8 | 68.9 | 90.5 | 73.8 | 78.7 | viability at 10 µM [10, 33]: 72.2%; viability at 10 µM [11, 34]: 75.9%; viability at 10 µM [12, 35]: 94.8%; viability at 10 µM [13, 36]: 87.7% |
| CCCNC(=O)NS(=O)(=O)c1ccc(Cl)cc1 [Chlorpropamide] | significant inhibition effect | 55.8 | 36.9 | 51.2 | 42.7 | 92.5 | 59.3 | 62.1 | 59.9 | 44.4 | 59.1 | 32.5 | 96.7 |  |  |  |  |  |  |  |  |
